We go through 18 molecules from patent US8697877B2, “Oxyindole derivatives with motilin receptor agonistic activity” (RaQualia Pharma Inc., priority 2009, dated 2014).

Broadly, the EC50 is the midpoint of the concentration-response curve.

T1 sequence (O43193 whole entry): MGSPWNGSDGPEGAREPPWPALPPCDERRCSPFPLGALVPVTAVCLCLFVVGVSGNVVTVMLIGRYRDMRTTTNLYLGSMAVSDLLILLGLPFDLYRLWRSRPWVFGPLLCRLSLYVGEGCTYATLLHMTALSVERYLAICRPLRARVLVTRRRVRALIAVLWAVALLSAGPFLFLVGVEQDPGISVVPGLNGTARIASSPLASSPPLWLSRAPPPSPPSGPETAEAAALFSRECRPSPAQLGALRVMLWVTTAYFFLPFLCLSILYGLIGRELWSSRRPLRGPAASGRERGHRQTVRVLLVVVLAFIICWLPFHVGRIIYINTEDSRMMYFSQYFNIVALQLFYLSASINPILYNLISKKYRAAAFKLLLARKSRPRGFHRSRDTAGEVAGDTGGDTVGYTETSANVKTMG

One experiment has as its target T1, human motilin receptor (GPR38) (Homo sapiens, UniProt O43193).
T1 construct: expressed in transfected cells; host or cells: CHO-K1
Briefly: GPR38 (Motilin Receptor) Functional Assay, NFAT-beta-lactamase reporter in CHO-K1 cells. In kind it is cell-based.
Conditions: not given
As to the method:
The potencies and efficacies of the compounds of this invention for GPR38 can be determined by reporter assay performed on the human cloned receptor as described herein.
GPR38 (Motilin Receptor) Functional Assay
A CHO-K1 cell line stably transfected NFAT-beta-lactamase reporter and human motilin receptor gene was used. The cells were cultured in culture medium (Dulbecco's modified eagle medium containing 10% fetal bovine serum, 1 mM sodium pyruvate, 0.1 mM MEM nonessential amino acids, 25 mM HEPES buffer, 50 units/mL penicillin, 50 microg/mL streptomycin, 100 microg/mL zeocin, and 500 microg/mL G418). The cells were harvested with 0.05% trypsin EDTA and centrifuged. The cell pellets were resuspended in the culture medium and plated into a black/clear bottom 384-well plate at a density of 8000 cells per well, then incubated at 37° C. with 5% CO2 for over night (about 20 hours). On the day of assay, the culture medium was aspirated and 20 microL of assay medium (Dulbecco's modified eagle medium containing 100 units/mL penicillin and 100 microg/mL streptomycin) was added to each well, then the cell plates were placed in incubator at 37° C. with 5% CO2 for 1.5 hours. Compounds were prepared in 100% DMSO and these were diluted to 5× of final concentration with assay buffer (Hanks balanced salt solution, 20 mM HEPES, and 0.1% BSA), then dispensed into 384-well plate (5 microL/well). After incubation at 37° C. with 5% CO2 for 4.5 hours, CCF4-AM loading solution (Invitrogen Corp.) was added to each well. After incubation for 2 hours at room temperature, fluorescence intensities were measured by using plate reader FDSS (Hamamatsu Photonics K. K.) with excitation 400 nm, emission 465 nm/540 nm. Agonistic activity (EC50) was calculated from the sigmoidal dose-response curve using GraphPad Prism software (GraphPad Software, Inc.).
Take `CN[C@@H]1CC[C@H](C(=O)N[C@@H](Cc2cccc(F)c2)C(=O)N2CCC(N3C(=O)C(C)(C)c4ccccc43)CC2)C1` [Example 28, (1S,3R)-N-((S)-1-(4-(3,3-dimethyl-2-oxoindolin-1-yl)piperidin-1-yl)-3-(3-fluorophenyl)-1-oxopropan-2-yl)-3-(methylamino)cyclopentane-carboxamide]: the EC50 is ≤ 10 nM. Regarding `CN[C@@H]1CC[C@H](C(=O)N[C@@H](Cc2cccc(Cl)c2)C(=O)N2CCC(N3C(=O)C(C)(C)c4ccccc43)CC2)C1` [Example 29, (1S,3R)-N-((S)-3-(3-chlorophenyl)-1-(4-(3,3-dimethyl-2-oxoindolin-1-yl)piperidin-1-yl)-1-oxopropan-2-yl)-3-(methylamino)cyclopentane-carboxamide], the EC50 was ≤ 10 nM. Take `CN[C@@H]1CC[C@H](C(=O)N[C@@H](Cc2ccccc2)C(=O)N2CCC(N3C(=O)C(C)(C)c4ccccc43)CC2)C1` [Example 30, (1S,3R)-N-((S)-1-(4-(3,3-dimethyl-2-oxoindolin-1-yl)piperidin-1-yl)-1-oxo-3-phenylpropan-2-yl)-3-(methylamino) cyclopentanecarboxamide]: the EC50 was ≤ 10 nM.

Consider `CN[C@@H]1CC[C@H](C(=O)N[C@@H](Cc2cccc(OC)c2)C(=O)N2CCC(N3C(=O)C(C)(C)c4ccccc43)CC2)C1` [Example 31, (1S,3R)-N-((S)-1-(4-(3,3-dimethyl-2-oxoindolin-1-yl)piperidin-1-yl)-3-(3-methoxyphenyl)-1-oxopropan-2-yl)-3-(methylamino)cyclopentane-carboxamide], for which the EC50 is ≤ 10 nM. Still for that read-out and setting: to `CN[C@@H]1CC[C@H](C(=O)N[C@@H](Cc2ccccc2F)C(=O)N2CCC(N3C(=O)C(C)(C)c4ccccc43)CC2)C1` [Example 32, (1S,3R)-N-((S)-1-(4-(3,3-dimethyl-2-oxoindolin-1-yl)piperidin-1-yl)-3-(2-fluorophenyl)-1-oxopropan-2-yl)-3-(methylamino)cyclopentane-carboxamide] belongs ≤ 10 nM.

As to `CN[C@@H]1CC[C@H](C(=O)N[C@@H](CC(C)C)C(=O)N2CCC(N3C(=O)C(C)(C)c4ccccc43)CC2)C1` [Example 33, (1S,3R)-N-((S)-1-(4-(3,3-dimethyl-2-oxoindolin-1-yl)piperidin-1-yl)-4-methyl-1-oxopentan-2-yl)-3-(methylamino) cyclopentanecarboxamide], the EC50 was ≤ 10 nM.

`CN[C@@H]1CC[C@H](C(=O)N[C@@H](Cc2c[nH]c3ccccc23)C(=O)N2CCC(N3C(=O)C(C)(C)c4ccccc43)CC2)C1` [Example 34, (1S,3R)-N-((S)-1-(4-(3,3-dimethyl-2-oxoindolin-1-yl)piperidin-1-yl)-3-(1H-indol-3-yl)-1-oxopropan-2-yl)-3-(methylamino)cyclopentane-carboxamide]: the EC50 was ≤ 10 nM.

With `CN[C@@H]1CC[C@H](C(=O)N[C@@H](Cc2cccc(C(F)(F)F)c2)C(=O)N2CCC(N3C(=O)C(C)(C)c4ccccc43)CC2)C1` [Example 35, (1S,3R)-N-((S)-1-(4-(3,3-dimethyl-2-oxoindolin-1-yl)piperidin-1-yl)-1-oxo-3-(3-(trifluoromethyl)phenyl)propan-2-yl)-3-(methylamino)cyclo-pentanecarboxamide], the EC50 is ≤ 10 nM. On the same count and under the same terms, as for `CN[C@@H]1CC[C@H](C(=O)N[C@@H](Cc2ccc(C(F)(F)F)cc2)C(=O)N2CCC(N3C(=O)C(C)(C)c4ccccc43)CC2)C1` [Example 36, (1S,3R)-N-((S)-1-(4-(3,3-dimethyl-2-oxoindolin-1-yl)piperidin-1-yl)-1-oxo-3-(4-(trifluoromethyl)phenyl)propan-2-yl)-3-(methylamino)cyclo-pentanecarboxamide], the figure is ≤ 10 nM; as for `CN[C@@H]1CC[C@H](C(=O)N[C@@H](Cc2ccc(OC)cc2)C(=O)N2CCC(N3C(=O)C(C)(C)c4ccccc43)CC2)C1` [Example 37, (1S,3R)-N-((S)-1-(4-(3,3-dimethyl-2-oxoindolin-1-yl)piperidin-1-yl)-3-(4-methoxyphenyl)-1-oxopropan-2-yl)-3-(methylamino)cyclopentanecarboxamide], ≤ 10 nM; as for `CN[C@@H]1CC[C@H](C(=O)N[C@@H](COc2ccccc2)C(=O)N2CCC(N3C(=O)C(C)(C)c4ccccc43)CC2)C1` [Example 38, (1S,3R)-N-((S)-1-(4-(3,3-dimethyl-2-oxoindolin-1-yl)piperidin-1-yl)-1-oxo-3-phenoxypropan-2-yl)-3-(methyl-amino)cyclopentanecarboxamide], ≤ 10 nM.

With `CN[C@@H]1CC[C@H](C(=O)N[C@@H](COc2ccccc2Cl)C(=O)N2CCC(N3C(=O)C(C)(C)c4ccccc43)CC2)C1` [Example 39, (1S,3R)-N-((S)-3-(2-chlorophenoxy)-1-(4-(3,3-dimethyl-2-oxoindolin-1-yl)piperidin-1-yl)-1-oxopropan-2-yl)-3-(methylamino)cyclopentanecarboxamide], the half-maximal effective concentration (EC50) was ≤ 10 nM. With `CN[C@@H]1CC[C@H](C(=O)N[C@H](CC(=O)N2CCC(N3C(=O)C(C)(C)c4ccccc43)CC2)Cc2ccccc2)C1` [Example 43, (1S,3R)-N-((S)-4-(4-(3,3-dimethyl-2-oxoindolin-1-yl)piperidin-1-yl)-4-oxo-1-phenylbutan-2-yl)-3-(methylamino) cyclopentanecarboxamide], the concentration for a half-maximal effect (EC50) was ≤ 10 nM. In the case of `CC1(C)C(=O)N(C2CCN(C(=O)[C@H](CCc3ccccc3)NC(=O)[C@@H]3CCCNC3)CC2)c2ccc(F)cc21` [Example 44, (R)—N—((S)-1-(4-(5-fluoro-3,3-dimethyl-2-oxoindolin-1-yl)piperidin-1-yl)-1-oxo-4-phenylbutan-2-yl)piperidine-3-carboxamide], the half-maximal effective concentration (EC50) is ≤ 10 nM.

In the case of `CN[C@@H]1CC[C@H](C(=O)N[C@@H](CCc2ccccc2)C(=O)N2CCC(N3C(=O)C(C)(C)c4cc(F)ccc43)CC2)C1` [Example 45, (1S,3R)-N-((S)-1-(4-(5-fluoro-3,3-dimethyl-2-oxoindolin-1-yl)piperidin-1-yl)-1-oxo-4-phenylbutan-2-yl)-3-(methylamino)cyclopentane-carboxamide], the concentration for a half-maximal effect (EC50) is ≤ 10 nM.

In the case of `CNC(C)(C)CC(=O)N[C@@H](CCc1ccccc1)C(=O)N1CCC(N2C(=O)C(C)(C)c3cc(F)ccc32)CC1` [Example 46, (S)-N-(1-(4-(5-fluoro-3,3-dimethyl-2-oxoindolin-1-yl)piperidin-1-yl)-1-oxo-4-phenylbutan-2-yl)-3-methyl-3-(methylamino)butanamide], the concentration for a half-maximal effect (EC50) is ≤ 10 nM.

Turning to `CN[C@H]1CCN(C(=O)N[C@@H](CCc2ccccc2)C(=O)N2CCC(N3C(=O)C(C)(C)c4ccccc43)CC2)C1` [Example 47, (S)—N—((S)-1-(4-(3,3-dimethyl-2-oxoindolin-1-yl)piperidin-1-yl)-1-oxo-4-phenylbutan-2-yl)-3-(methylamino)pyrrolidine-1-carboxamide], the concentration for a half-maximal effect (EC50) was ≤ 10 nM. For `CC1(C)C(=O)N(C2CCN(C(=O)[C@H](CCc3ccccc3)NC(=O)NC[C@@H]3CCCN3)CC2)c2ccccc21` [Example 48, 1-((S)-1-(4-(3,3-dimethyl-2-oxo-indolin-1-yl)piperidin-1-yl)-1-oxo-4-phenylbutan-2-yl)-3-((S)-pyrrolidin-2-ylmethyl)urea], the half-maximal effective concentration (EC50) was ≤ 10 nM.

Still in this experiment, the particulars now being: ED50 (nM), Table 15; functional activity toward GPR38 (motilin receptor), (S) versus (R) amino acid linker.
Molecule `CN[C@H]1CCN(C(=O)N[C@@H](CCc2ccccc2)C(=O)N2CCC(N3C(=O)C(C)(C)c4ccccc43)CC2)C1` [Example 47, (S)—N—((S)-1-(4-(3,3-dimethyl-2-oxoindolin-1-yl)piperidin-1-yl)-1-oxo-4-phenylbutan-2-yl)-3-(methylamino)pyrrolidine-1-carboxamide] yielded a concentration giving a half-maximal response (EC50) of 0.98 nM.
